Data as given in ChEMBL document CHEMBL1134130, “Carbonic anhydrase inhibitors: 4-sulfamoyl-benzenecarboxamides and 4-chloro-3-sulfamoyl-benzenecarboxamides with strong topical antiglaucoma properties” (Bioorg Med Chem Lett, 2001).

Tests used:
Carbonic anhydrase 1 = Carbonic anhydrase 1 (Homo sapiens, UniProt P00915)
Description: Binding affinity against human carbonic anhydrase I (hCA I)

Oryctolagus cuniculus [1] = species on record: Oryctolagus cuniculus
Description: In vivo intraocular pressure (IOP) lowering at 90 min in normotensive rabbits after treatment with one drop (50 uL) 2% solution of CA inhibitor directly into the eye, at 7.0 pH

[2] = Compound was evaluated for in vitro corneal permeability in no epithelium; format: ADME, tissue-based, Cornea
physchem = conditions: octanol/water
Description: Partition coefficient (logP)

[3] = Compound was evaluated for in vitro corneal permeability in cornea intact; format: ADME, tissue-based
Oryctolagus cuniculus [4] = species on record: Oryctolagus cuniculus; remark: listed apart in the source
Description: In vivo intraocular pressure (IOP) lowering at 30 min in normotensive rabbits after treatment with one drop (50 uL) 2% solution of CA inhibitor directly into the eye, at 7.0 pH

Oryctolagus cuniculus [5] = assay: In vivo intraocular pressure (IOP) lowering at 0 min in normotensive rabbits after treatment with one drop (50 uL) 2% solution of CA inhibitor directly into the eye, at 7.0 pH; format: functional
Oryctolagus cuniculus [6] = species on record: Oryctolagus cuniculus; remark: listed apart in the source
Description: In vivo intraocular pressure (IOP) lowering at 120 min in normotensive rabbits after treatment with one drop (50 uL) 2% solution of CA inhibitor directly into the eye, at 7.0 pH

Carbonic anhydrase 4 [7] = biological target: T1, Carbonic anhydrase 4 (Bos taurus, UniProt Q95323)
T1 sequence (Q95323 whole entry): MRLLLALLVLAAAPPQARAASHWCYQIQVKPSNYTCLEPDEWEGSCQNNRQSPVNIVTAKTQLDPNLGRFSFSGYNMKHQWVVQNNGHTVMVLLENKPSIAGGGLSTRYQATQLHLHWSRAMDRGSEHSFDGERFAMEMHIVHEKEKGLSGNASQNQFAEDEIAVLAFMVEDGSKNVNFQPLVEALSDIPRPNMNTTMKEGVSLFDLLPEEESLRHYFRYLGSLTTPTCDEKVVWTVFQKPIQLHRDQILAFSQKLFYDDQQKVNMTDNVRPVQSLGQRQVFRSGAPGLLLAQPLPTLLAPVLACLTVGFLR
Description: Compound was evaluated for binding affinity against bovine carbonic anhydrase IV (bCA IV)

Oryctolagus cuniculus [8] = species on record: Oryctolagus cuniculus; remark: listed apart in the source
Carbonic anhydrase 2 = Carbonic anhydrase 2 (Homo sapiens, UniProt P00918)
Description: Binding affinity against human carbonic anhydrase II (hCA -II)

Carbonic anhydrase 4 [9] = biological target: T1, Carbonic anhydrase 4; remark: listed apart in the source
Description: Compound was evaluated for binding affinity against bovine Carbonic anhydrase IV

Oryctolagus cuniculus [10] = species on record: Oryctolagus cuniculus; remark: listed apart in the source
Description: Fall of in vivo intraocular pressure (IOP) of glaucomatous rabbits at 120 min after treatment with one drop (50 uL) solution of 2% of CA inhibitor directly into eye

Oryctolagus cuniculus [11] = species on record: Oryctolagus cuniculus; remark: listed apart in the source
Description: Fall of in vivo intraocular pressure (IOP) of glaucomatous rabbits at 90 min after treatment with one drop (50 uL) solution of 2% of CA inhibitor directly into eye

Oryctolagus cuniculus [12] = species on record: Oryctolagus cuniculus; remark: listed apart in the source
Description: Fall of in vivo intraocular pressure (IOP) of glaucomatous rabbits at 60 min after treatment with one drop (50 uL) solution of 2% of CA inhibitor directly into eye

Oryctolagus cuniculus [13] = species on record: Oryctolagus cuniculus; remark: listed apart in the source
Description: Fall of in vivo intraocular pressure (IOP) of glaucomatous rabbits at 30 min after treatment with one drop (50 uL) solution of 2% of CA inhibitor directly into eye

Oryctolagus cuniculus [14] = species on record: Oryctolagus cuniculus; remark: listed apart in the source
Description: Fall of in vivo intraocular pressure (IOP) of glaucomatous rabbits at 0 min after treatment with one drop (50 uL) solution of 2% of CA inhibitor directly into eye

Oryctolagus cuniculus [15] = assay: In vivo intraocular pressure (IOP) lowering at 90 min in normotensive rabbits after treatment with one drop (50 uL) 2% solution of CA inhibitor directly into the eye, at 7.5 pH; format: functional
Oryctolagus cuniculus [16] = assay: In vivo intraocular pressure (IOP) lowering at 30 min in normotensive rabbits after treatment with one drop (50 uL) 2% solution of CA inhibitor directly into the eye, at 7.5 pH; format: functional
Oryctolagus cuniculus [17] = assay: In vivo intraocular pressure (IOP) lowering at 120 min in normotensive rabbits after treatment with one drop (50 uL) 2% solution of CA inhibitor directly into the eye, at 7.5 pH; format: functional
Oryctolagus cuniculus [18] = assay: In vivo intraocular pressure (IOP) lowering at 0 min in normotensive rabbits after treatment with one drop (50 uL) 2% solution of CA inhibitor directly into the eye, at 7.5 pH; format: functional
Oryctolagus cuniculus [19] = assay: In vivo intraocular pressure (IOP) lowering at 60 min in normotensive rabbits after treatment with one drop (50 uL) 2% solution of CA inhibitor directly into the eye, at 7.5 pH; format: functional
Oryctolagus cuniculus [20] = assay: In vivo intraocular pressure (IOP) lowering at 60 min in normotensive rabbits after treatment with one drop (50 uL) 2% solution of CA inhibitor directly into the eye, at 7.0 pH; format: functional

Sequence of Carbonic anhydrase 1 (P00915 whole entry): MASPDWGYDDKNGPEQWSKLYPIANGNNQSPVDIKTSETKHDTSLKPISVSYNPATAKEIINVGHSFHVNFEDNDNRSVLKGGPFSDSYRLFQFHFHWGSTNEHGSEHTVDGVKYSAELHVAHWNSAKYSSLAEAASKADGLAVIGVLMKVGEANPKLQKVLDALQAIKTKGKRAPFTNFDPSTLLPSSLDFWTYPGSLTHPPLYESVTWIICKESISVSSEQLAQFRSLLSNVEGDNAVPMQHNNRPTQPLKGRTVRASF

Row | SMILES | Ki (Carbonic anhydrase 1) [nM] | Km x10e3 [2] [hr-1] | logP (physchem) | Km x10e3 [3] [hr-1] | Ki (Carbonic anhydrase 4 [7]) [nM] | Ki (Carbonic anhydrase 2) [nM] | further results
1 | CC(C)C[C@H](NC(=O)c1ccc(S(N)(=O)=O)cc1)C(=O)NCC(=O)O | 400 | 6.4 | 1.82 | 3.3 | 16 | 9 | Delta IOP (Oryctolagus cuniculus [1]): 7.8 mmHg; Delta IOP (Oryctolagus cuniculus [4]): 3.3 mmHg; Delta IOP (Oryctolagus cuniculus [5]): 0 mmHg; Delta IOP (Oryctolagus cuniculus [6]): 8.7 mmHg; Delta IOP (Oryctolagus cuniculus [8]): 5.2 mmHg
2 | NS(=O)(=O)c1ccc(CCNC(=O)c2ccc(S(N)(=O)=O)cc2)cc1 | – | 6.3 | 1.43 | 2.5 | 13 | – | –
3 | NS(=O)(=O)c1ccc(C(=O)NCC(=O)O)cc1 | 500 | – | – | – | – | 85 | Ki (Carbonic anhydrase 4 [9]): 200 nM
4 | NS(=O)(=O)c1ccc(C(=O)N[C@@H](Cc2c[nH]cn2)C(=O)N[C@@H](Cc2ccccc2)C(=O)O)cc1 | 240 | 5.8 | 1.74 | 2.9 | 23 | 9 | Delta IOP (Oryctolagus cuniculus [10]): 10 mmHg; Delta IOP (Oryctolagus cuniculus [11]): 11 mmHg; Delta IOP (Oryctolagus cuniculus [12]): 12 mmHg; Delta IOP (Oryctolagus cuniculus [1]): 9.1 mmHg; Delta IOP (Oryctolagus cuniculus [4]): 4.2 mmHg; Delta IOP (Oryctolagus cuniculus [6]): 9.5 mmHg; Delta IOP (Oryctolagus cuniculus [8]): 6.5 mmHg; Delta IOP (Oryctolagus cuniculus [13]): 7.1 mmHg; Delta IOP (Oryctolagus cuniculus [14]): 0 mmHg
5 | NS(=O)(=O)c1ccc(C(=O)NCCC(=O)O)cc1 | 435 | – | – | – | – | 85 | Ki (Carbonic anhydrase 4 [9]): 190 nM
6 | NS(=O)(=O)c1nnc(NC(=O)c2ccc(Cl)c(S(N)(=O)=O)c2)s1 | 13 | 7 | 1.89 | 3.1 | 22 | 10 | Delta IOP (Oryctolagus cuniculus [10]): 13.3 mmHg; Delta IOP (Oryctolagus cuniculus [11]): 14.2 mmHg; Delta IOP (Oryctolagus cuniculus [12]): 13 mmHg; Delta IOP (Oryctolagus cuniculus [15]): 8.3 mmHg; Delta IOP (Oryctolagus cuniculus [16]): 2.5 mmHg; Delta IOP (Oryctolagus cuniculus [17]): 7.5 mmHg; Delta IOP (Oryctolagus cuniculus [13]): 6.4 mmHg; Delta IOP (Oryctolagus cuniculus [14]): 0 mmHg; Delta IOP (Oryctolagus cuniculus [18]): 0 mmHg; Delta IOP (Oryctolagus cuniculus [19]): 7.1 mmHg
7 | NS(=O)(=O)c1ccc(C(=O)Nc2nnc(S)s2)cc1 | 38 | – | – | – | 14 | 5 | Delta IOP (Oryctolagus cuniculus [20]): 5 mmHg; Delta IOP (Oryctolagus cuniculus [1]): 3.1 mmHg; Delta IOP (Oryctolagus cuniculus [4]): 7 mmHg; Delta IOP (Oryctolagus cuniculus [6]): 2.1 mmHg; Delta IOP (Oryctolagus cuniculus [18]): 0 mmHg
8 | NC(=O)CC[C@H](NC(=O)c1ccc(S(N)(=O)=O)cc1)C(=O)O | 425 | – | – | – | 160 | 75 | –
9 | NS(=O)(=O)c1ccc(C(=O)NC(C(=O)O)c2ccccc2)cc1 (stereo not drawn) | 250 | – | – | – | 75 | 36 | –
10 | NC(=O)C[C@H](NC(=O)c1ccc(Cl)c(S(N)(=O)=O)c1)C(=O)O | 240 | – | – | – | 330 | 275 | –
11 | NS(=O)(=O)c1cc(C(=O)N[C@@H](CS)C(=O)O)ccc1Cl | 300 | – | – | – | 720 | 490 | –
12 | NS(=O)(=O)c1ccc(NC(=O)c2ccc(Cl)c(S(N)(=O)=O)c2)cc1 | 24 | – | – | – | 66 | 30 | –
13 | NS(=O)(=O)c1cc(C(=O)Nc2nnc(S)s2)ccc1Cl | 15 | – | – | – | 21 | 11 | –
